Source: publication PMC7143940, “Enhancing the Immune Response of a Nicotine Vaccine with Synthetic Small “Non-Natural” Peptides” (Molecules, 2020)
“Also recorded” adds a separate entry of the source. Where a SMILES comes first, the peptide text is derived from it.

Test: Peptide stability in human plasma (RP-HPLC)
Assay type: in vitro ADME
Conditions: human plasma (EDTA blood, healthy volunteers), 37 °C, various time points, RP-HPLC with 0.1% trifluoroacetic acid, absorbance at 210 nm, average ± SEM of three separate experiments; result in words
Description: Figure 1 Peptide stability in plasma. Pentapeptide 1 was incubated in human plasma at 37 °C. Levels of the peptide remaining after various time points were analyzed by RP-HPLC in the presence of 0.1% trifluoroacetic acid and detected by absorbance at 210 nm. Peptide amounts were calculated relative to quantities determined at time point zero, and data shown are the average ± SEM of three separate experiments.
Blood was collected from healthy volunteers in EDTA blood collection tubes (BD Vacutainer, Mississauga, ON, Canada). Plasma was collected after centrifugation at 900× g and 20 °C for 10 min with decreased deceleration, aliquoted, and stored at −80 °C. All subjects gave their informed consent for inclusion before they participated in the study. The study was conducted in accordance with the Declaration of Helsinki, with all protocols approved by the Research Ethics Board at Health Sciences North Research Institute (Protocol # 18-061).
The stability of pentapeptide 1 in human plasma was analyzed using previously published methods.

NCCCC[C@H](N)C(=O)N[C@@H](Cc1c[nH]c2ccccc12)C(=O)N[C@@H](CS)C(=O)N[C@@H](CCC(=O)O)C(=O)N[C@@H](CS)C(=O)O [Peptide 1, KWCEC] (H-KWCEC-OH)
Plasma stability: peptide remaining relative to time point zero: No statistical difference was found between the two time points; also recorded: not recognized and cleaved by proteolytic enzymes
